Our source for the IC50 and EC50 values is US11584747B2, “Substituted pyridopyrimidinonyl compounds useful as T cell activators” (BRISTOL-MYERS SQUIBB COMPANY, priority 2019, dated 2023).

Assay [1] has as its target T1, human DGKα (Homo sapiens (Human), UniProt P23743). The assay can be described thus: DGKα ADPGLO assay (detergent/lipid micelle substrate). The assay is classed as biochemical. The conditions noted are these: ADPGLO assay; read-out: DGK alpha ADPGLO IC50. On the procedure: DGK Alpha ADPGLO (Truncated) IC50 (uM)
The detergent/lipid micelle was prepared by combining 15 g phosphatidylserine (Avanti 840035P) and 1 g diacylglycerol (8008110) and dissolving into 150 mL chloroform in a 2 L round bottom flask. Chloroform was removed under high vacuum by rotary evaporation. […] The lipid/detergent solution was split into 5 mL aliquots and stored at −80° C.
(In general: ADP-Glo first removes unused ATP, then detects ADP through luciferase.)

Another assay concerns whole blood (pERK). Briefly: pERK Whole Blood. The assay is classed as cell-based.
Assay [2] concerns human venous whole blood (IFN-γ). The assay can be described thus: Human whole blood IFN-γ assay. The assay is classed as cell-based. As to conditions: human whole blood, anti-CD3 plus anti-CD28 stimulation, 24 hours, read-out: IFN-γ Whole Blood EC50. On the procedure:
Human venous whole blood (22.5 μL per well), obtained from healthy donors, was pre-treated with compounds for one hour at 37° C. in a humidified 95% air/5% CO2 incubator. The blood was stimulated with 2.5 μL anti-human CD3 and anti-CD28 mAb at a final concentration of 1 μg/mL each for 24 hours at 37° C. IFN-γ in the supernatants was measured using AlphLISA kit (Cat #AL217).

The target of the next assay is human DGKζ (Homo sapiens (Human), UniProt Q13574). The assay can be described thus: DGKζ LIPGLO assay (extruded liposome substrate, ADP-Glo luminescence). The assay is classed as biochemical. The conditions noted are these: liposome (LIPGLO) assay; read-out: DGK zeta (liposome assay) IC50.
Chain of human DGKζ (Q13574 other isoform, or with tags, fused parts or gaps): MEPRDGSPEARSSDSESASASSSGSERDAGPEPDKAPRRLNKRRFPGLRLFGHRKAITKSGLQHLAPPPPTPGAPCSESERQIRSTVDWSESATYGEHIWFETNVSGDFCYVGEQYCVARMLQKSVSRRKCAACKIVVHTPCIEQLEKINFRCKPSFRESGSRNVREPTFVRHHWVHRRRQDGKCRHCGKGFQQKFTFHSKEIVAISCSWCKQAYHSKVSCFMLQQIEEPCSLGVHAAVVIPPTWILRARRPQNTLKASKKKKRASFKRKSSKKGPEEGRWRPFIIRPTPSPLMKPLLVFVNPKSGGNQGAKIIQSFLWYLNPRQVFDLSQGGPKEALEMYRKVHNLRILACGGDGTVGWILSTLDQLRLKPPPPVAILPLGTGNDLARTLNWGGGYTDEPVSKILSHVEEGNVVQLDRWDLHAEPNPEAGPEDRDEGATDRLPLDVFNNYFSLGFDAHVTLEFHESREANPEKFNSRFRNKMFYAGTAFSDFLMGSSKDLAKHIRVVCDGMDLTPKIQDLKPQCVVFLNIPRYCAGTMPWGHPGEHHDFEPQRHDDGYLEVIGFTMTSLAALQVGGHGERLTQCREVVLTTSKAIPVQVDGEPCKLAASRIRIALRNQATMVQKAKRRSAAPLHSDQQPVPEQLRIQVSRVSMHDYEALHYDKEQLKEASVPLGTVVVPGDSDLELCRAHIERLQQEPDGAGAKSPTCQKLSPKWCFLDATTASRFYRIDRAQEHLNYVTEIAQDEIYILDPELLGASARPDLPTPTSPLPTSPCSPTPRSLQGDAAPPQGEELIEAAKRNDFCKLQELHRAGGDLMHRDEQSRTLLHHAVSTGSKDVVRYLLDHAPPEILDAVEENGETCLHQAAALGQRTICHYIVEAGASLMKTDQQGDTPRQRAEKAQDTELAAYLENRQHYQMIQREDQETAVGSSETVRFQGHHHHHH
The target of assay [3] is T1, human DGKα. Briefly: DGKα LIPGLO assay (extruded liposome substrate, ADP-Glo luminescence). It is filed as biochemical. The conditions noted are these: liposome (LIPGLO) assay; read-out: DGK alpha (liposome assay) IC50.

pEC50, pIC50: −log10 of the molar value. Like-named read-outs stand apart in the source and are kept apart here.

T1 sequence (P23743 whole entry, looked up, the tested form may be a part): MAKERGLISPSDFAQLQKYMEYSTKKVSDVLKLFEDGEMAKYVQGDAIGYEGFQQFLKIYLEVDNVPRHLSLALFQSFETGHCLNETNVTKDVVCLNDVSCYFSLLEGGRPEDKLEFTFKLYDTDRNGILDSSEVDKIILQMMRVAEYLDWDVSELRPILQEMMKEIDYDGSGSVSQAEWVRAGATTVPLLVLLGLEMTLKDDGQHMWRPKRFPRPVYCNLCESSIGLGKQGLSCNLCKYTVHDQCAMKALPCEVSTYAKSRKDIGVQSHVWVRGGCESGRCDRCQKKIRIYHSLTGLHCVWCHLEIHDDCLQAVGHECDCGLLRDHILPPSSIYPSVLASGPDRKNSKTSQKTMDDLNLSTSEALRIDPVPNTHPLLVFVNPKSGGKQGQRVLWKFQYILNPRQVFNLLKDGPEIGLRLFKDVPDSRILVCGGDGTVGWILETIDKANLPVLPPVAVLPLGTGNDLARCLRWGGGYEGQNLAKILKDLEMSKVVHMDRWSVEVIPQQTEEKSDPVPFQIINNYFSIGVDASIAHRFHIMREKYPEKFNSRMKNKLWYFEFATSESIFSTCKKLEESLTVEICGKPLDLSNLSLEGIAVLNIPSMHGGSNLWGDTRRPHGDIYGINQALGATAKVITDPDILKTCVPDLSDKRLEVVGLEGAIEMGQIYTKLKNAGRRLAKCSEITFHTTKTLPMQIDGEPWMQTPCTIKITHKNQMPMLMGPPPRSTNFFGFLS

As for `CC(c1ccc(CN2CCOC(C)(C)C2)cc1)N1C[C@H](C)N(c2nc(=O)n(C)c3ccc(C#N)nc23)C[C@H]1C` (single isomer, unassigned) [Example 385], the negative-log IC50 (pIC50) was 7.92 on human DGKα [1] and 7.37 at human DGKζ. The negative-log EC50 (pEC50) with whole blood (pERK) was 6.62; in assay [2], 6.89.

As for `CC[C@H]1CN(C(c2ccc(F)cc2)c2noc(C3CC3)n2)[C@H](CC)CN1c1nc(=O)n(C)c2ccc(C#N)nc12` (single isomer, unassigned) [Example 371], the pIC50 was 7.89 at human DGKα [1] and 7.00 at human DGKζ. In addition, the negative logarithm of the EC50 (pEC50) with whole blood (pERK) is 5.48; in assay [2] (Homo sapiens, 24 h), 6.72.

With `CCC(c1ccc(OC)cc1)N1C[C@H](C)N(c2nc(=O)n(C)c3ccc(C#N)nc23)C[C@H]1CC` (stereo partly drawn) [Example 304, 4-((2S,5R)-5-ethyl-4-(1-(4-methoxyphenyl)propyl)-2-methylpiperazin-1-yl)-1-methyl-2-oxo-1,2-dihydropyrido[3,2-d]pyrimidine-6-carbonitrile], the negative-log IC50 (pIC50) on human DGKα [1] is 7.92; on human DGKζ it was 7.85. Also, the pEC50 with whole blood (pERK) is 6.96; in assay [2], 7.80.

With `COC(=O)NC[C@@H]1CN(c2nc(=O)n(C)c3ccc(C#N)nc23)[C@@H](C)CN1C(C)c1ccc(C(F)(F)F)cc1` (stereo partly drawn) [Example 405], the pEC50 in the assay on whole blood (pERK) was 5.59; in assay [2] (Homo sapiens, 24 h) it was 5.92. In addition, the negative logarithm of the IC50 (pIC50) is 6.96 on human DGKζ and 4.87 at human DGKα [3].

Take `CCC(c1ccc(OC)cc1)N1C[C@H](C)N(c2nc(=O)n(C)c3ccc(C#N)nc23)C[C@H]1CC` (stereo partly drawn) [Example 305, 4-((2S,5R)-5-ethyl-4-(1-(4-methoxyphenyl)propyl)-2-methylpiperazin-1-yl)-1-methyl-2-oxo-1,2-dihydropyrido[3,2-d]pyrimidine-6-carbonitrile]: the negative logarithm of the IC50 (pIC50) was 7.21 at human DGKα [1] and 5.85 at human DGKζ. Also, the pEC50 was 5.44 in the assay with whole blood (pERK) and 4.93 in assay [2].

As for `CCC(c1ccc(OCC2CC2)cc1)N1C[C@H](C)N(c2nc(=O)n(C)c3ccc(C#N)nc23)C[C@H]1CC` (stereo partly drawn) [Example 308, 4-((2S,5R)-4-(1-(4-(cyclopropylmethoxy)phenyl)propyl)-5-ethyl-2-methylpiperazin-1-yl)-1-methyl-2-oxo-1,2-dihydropyrido[3,2-d]pyrimidine-6-carbonitrile], the results for the negative logarithm of the IC50 (pIC50) at human DGKα [1] and on human DGKζ were 7.21 and 7.41, respectively. Besides, the pEC50 in the assay on whole blood (pERK) is 6.05; in assay [2], 7.47.

With `CCC(c1ccc(OC(C)C)cc1)N1C[C@H](C)N(c2nc(=O)n(C)c3ccc(C#N)nc23)C[C@H]1CC` (stereo partly drawn) [Example 334, 4-((2 S,5R)-5-ethyl-4-(1-(4-isopropoxyphenyl)propyl)-2-methylpiperazin-1-yl)-1-methyl-2-oxo-1,2-dihydropyrido[3,2-d]pyrimidine-6-carbonitrile], the pIC50 at human DGKα [1] was 6.34; at human DGKζ it was 6.28. The pEC50 was 4.70 in the assay on whole blood (pERK) and 6.14 in assay [2].

Take `CC(c1ccc(CN2CCC(F)(F)CC2)cc1)N1C[C@H](C)N(c2nc(=O)n(C)c3ccc(C#N)nc23)C[C@H]1C` (stereo partly drawn) [Example 391, 4-((2S,5R)-4-(1-(4-((4,4-difluoropiperidin-1-yl)methyl)phenyl)ethyl)-2,5-dimethylpiperazin-1-yl)-1-methyl-2-oxo-1,2-dihydropyrido[3,2-d]pyrimidine-6-carbonitrile]: the results for the pIC50 at human DGKα [1] and on human DGKζ were 5.69 and 5.87, respectively. The figures for the negative logarithm of the EC50 (pEC50) (with whole blood (pERK); in assay [2]) were 5.95 and 6.14, respectively.

For `CC(c1ccc(C(F)(F)F)cc1)N1C[C@H](C)N(c2nc(=O)n(C)c3ccc(Cl)nc23)C[C@H]1CN=[N+]=[N-]` (stereo partly drawn) [Example 402, 4-((2S,5S)-5-(Azidomethyl)-2-methyl-4-(1-(4-(trifluoromethyl)phenyl)ethyl)piperazin-1-yl)-6-chloro-1-methylpyrido[3,2-d]pyrimidin-2(1H)-one], the pEC50 with whole blood (pERK) was 5.44; in assay [2] (Homo sapiens, 24 h), 5.86. The pIC50 on human DGKζ was 5.32; at human DGKα [3], 4.31.

On to `CC(c1ccc(CN2CCC(F)(F)CC2)cc1)N1C[C@H](C)N(c2nc(=O)n(C)c3ccc(C#N)nc23)C[C@H]1C` (stereo partly drawn) [Example 390, 4-((2S,5R)-4-(1-(4-((4,4-difluoropiperidin-1-yl)methyl)phenyl)ethyl)-2,5-dimethylpiperazin-1-yl)-1-methyl-2-oxo-1,2-dihydropyrido[3,2-d]pyrimidine-6-carbonitrile], for which the results for the pIC50 on human DGKα [1] and on human DGKζ were 7.01 and 6.74, respectively. Further, the pEC50 in the assay with whole blood (pERK) was 4.70; in assay [2] it was 7.40.

With `CCC(c1ccc(OC(C)C)cc1)N1C[C@H](C)N(c2nc(=O)n(C)c3ccc(C#N)nc23)C[C@H]1CC` (stereo partly drawn) [Example 333, 4-((2 S,5R)-5-ethyl-4-(1-(4-isopropoxyphenyl)propyl)-2-methylpiperazin-1-yl)-1-methyl-2-oxo-1,2-dihydropyrido[3,2-d]pyrimidine-6-carbonitrile], the pIC50 was 7.05 at human DGKα [1] and 7.14 on human DGKζ. In addition, the pEC50 in the assay on whole blood (pERK) was 7.00; in assay [2] it was 6.92.

`CCC(c1ccc(C(F)(F)F)cc1)N1C[C@H](CC)N(c2nc(=O)n(C)c3ccc(OC)nc23)C[C@H]1CC` (stereo partly drawn) [Example 435, 4-((2S,5R)-2,5-diethyl-4-(1-(4-(trifluoromethyl)phenyl)propyl)piperazin-1-yl)-6-methoxy-1-methylpyrido[3,2-d]pyrimidin-2(1H)-one]: the pIC50 is 5.72 at human DGKα [1] and 5.26 at human DGKζ. For the same molecule, the results for the negative-log EC50 (pEC50) (in the assay on whole blood (pERK); in assay [2]) were 5.14 and 5.38, respectively.

For orientation: pIC50 means the negative decadic logarithm of the IC50, by convention in mol/L. By pEC50 is commonly meant the negative decadic logarithm of the EC50, by convention in mol/L.
